According to patent US20250374927A1, “HERBICIDAL COMBINATIONS AND A METHOD FOR CONTROLLING UNDESIRED VEGETATION” (UPL Mauritius Limited, priority 2022, published 2025):

Tested on: Borreria verticillata
Assay: Post-emergence herbicidal efficacy of L-glufosinate ammonium, additional herbicides and their combinations (observed vs Colby expected)
Type: in vivo
Procedure: Methodology: Trials were carried out to evaluate the efficacy of the combination comprising L-glufosinate ammonium and the additional herbicides on Spermacoce genus weeds.
The soil used was sandy clay loam-sand: 68.0%; silt: 8.0%; clay: 24.0%.
All treatments were in 4 replications per treatment with a spray volume of about 150 L/ha.
Efficacy Evaluation: The expected efficacy of the combination comprising L-glufosinate ammonium and additional herbicides was calculated using the well-established Colby method.
In the Colby method, the expected (or predicted) response of a combination of herbicides is calculated by taking the product of the observed response for each individual component of the combination when applied alone, divided by 100, and subtracting this value from the sum of the observed response for each component when applied alone. An unexpected enhancement in efficacy of the combination is then determined by comparing the observed response of the combination to the expected (or predicted) response as calculated from the observed response of each individual component alone. If the observed response of the combination is greater than the expected (or predicted) response, or stated conversely, if the difference between the observed and expected response is greater than zero, then the combination is said to be synergistic or unexpectedly effective (Colby, S. R., Weeds, 1967(15), p. 20-22). The Colby method requires only a single dose of each herbicide applied alone and the mixture of both doses. The formula used to calculate the expected efficacy (EE) which was compared with the observed efficacy (OE) to determine the efficacy of the present disclosure is explained hereinbelow:
The expected efficacy for a combination of two active ingredients is as follows:
The expected efficacy for a combination of three active ingredients is as follows: […]

In the case of `C[N+](C)(C)CCO.O=C([O-])COc1ccc(Cl)cc1Cl` [2,4-D choline, 2,4-dichlorophenoxyacetic acid (2,4-D) choline], the “Observed efficacy (%) of 2,4-D choline (137 g a.i./ha)” value (7 DAA, 137 g a.i./ha, Example 9) is reported as 30% and the “Observed efficacy (%) of 2,4-D choline (228 g a.i./ha)” value (7 DAA, 228 g a.i./ha, Example 10) is reported as 30%.
For `COc1c(Cl)ccc(Cl)c1C(=O)O` [Dicamba], the “Observed efficacy (%) of Dicamba (228 g a.i./ha)” value (7 DAA, 228 g a.i./ha, Example 1) was 45% and the “Observed efficacy (%) of Dicamba (228 g a.i./ha)” value (28 DAA, 228 g a.i./ha, Example 1) was 40%.
For `COc1c(Cl)ccc(-c2nc(C(=O)OCc3ccccc3)c(Cl)c(N)c2F)c1F` [Florpyrauxifen-benzyl], the “Observed efficacy (%) of Florpyrauxifen-benzyl (15 g a.i./ha)” value (7 DAA, Example 2) was 30% and the “Observed efficacy (%) of Florpyrauxifen-benzyl (15 g a.i./ha)” value (28 DAA, Example 2) was 20%.
In the case of `COCc1cnc(C2=NC(C)(C(C)C)C(=O)N2)c(C(=O)O)c1` (stereo not drawn) [Imazamox], the “Observed efficacy (%) of Imazamox (21 g a.i./ha)” value (3 DAA, 21 g a.i./ha, Example 6) is reported as 10%.
In the case of `Cc1cnc(C2=NC(=O)C(C)(C(C)C)N2)c(C(=O)O)c1` (stereo not drawn) [Imazapic], the “Observed efficacy (%) of Imazapic (59 g a.i./ha)” value (“Observed efficacy (%) of Imazapic” for short) (3 DAA, Example 7) is reported as 10%, the “Observed efficacy (%) of Imazapic” value (7 DAA, Example 7) is reported as 20% and the “Observed efficacy (%) of Imazapic” value (14 DAA, Example 7) is reported as 35%. For the same molecule, the “Observed efficacy (%) of Imazapic” value (21 DAA, Example 7) was 30%, the “Observed efficacy (%) of Imazapic” value (28 DAA, Example 7) was 40% and the “Observed efficacy (%) of Imazapic” value (35 DAA, Example 7) was 60%.
In the case of `CP(=O)(O)CC[C@H](N)C(=O)O.N` [L-glufosinate ammonium], the “Observed efficacy (%) of L-glufosinate ammonium (Glufosinate-P-ammonium) (150 g a.i./ha)” value (3 DAA, Example 6) is reported as 55%, the “Observed efficacy (%) of L-glufosinate ammonium (Glufosinate-P-ammonium) (150 g a.i./ha)” value (3 DAA, Example 7) is reported as 50% and the “Observed efficacy (%) of L-glufosinate ammonium (Glufosinate-P-ammonium) (150 g a.i./ha)” value (3 DAA, Example 8) is reported as 50%. The “Observed efficacy (%) of L-glufosinate ammonium (Glufosinate-P-ammonium) (150 g a.i./ha)” value (7 DAA, Example 1) was 65%, the “Observed efficacy (%) of L-glufosinate ammonium (Glufosinate-P-ammonium) (150 g a.i./ha)” value (7 DAA, Example 2) was 65% and the “Observed efficacy (%) of L-glufosinate ammonium (Glufosinate-P-ammonium) (150 g a.i./ha)” value (7 DAA, Example 3) was 85%. For the same molecule, the “Observed efficacy (%) of L-glufosinate ammonium (Glufosinate-P-ammonium) (150 g a.i./ha)” value (7 DAA, Example 5) was 90%, the “Observed efficacy (%) of L-glufosinate ammonium (Glufosinate-P-ammonium) (150 g a.i./ha)” value (7 DAA, Example 7) was 80% and the “Observed efficacy (%) of L-glufosinate ammonium (Glufosinate-P-ammonium) (150 g a.i./ha)” value (7 DAA, Example 8) was 80%. For the same molecule, the “Observed efficacy (%) of L-glufosinate ammonium (Glufosinate-P-ammonium) (150 g a.i./ha)” value (14 DAA, Example 3) was 80%, the “Observed efficacy (%) of L-glufosinate ammonium (Glufosinate-P-ammonium) (150 g a.i./ha)” value (14 DAA, Example 5) was 80% and the “Observed efficacy (%) of L-glufosinate ammonium (Glufosinate-P-ammonium) (150 g a.i./ha)” value (14 DAA, Example 7) was 95%. The “Observed efficacy (%) of L-glufosinate ammonium (Glufosinate-P-ammonium) (150 g a.i./ha)” value (14 DAA, Example 8) was 95%, the “Observed efficacy (%) of L-glufosinate ammonium (Glufosinate-P-ammonium) (150 g a.i./ha)” value (21 DAA, Example 7) was 90% and the “Observed efficacy (%) of L-glufosinate ammonium (Glufosinate-P-ammonium) (150 g a.i./ha)” value (21 DAA, Example 8) was 90%. For the same molecule, the “Observed efficacy (%) of L-glufosinate ammonium (Glufosinate-P-ammonium) (150 g a.i./ha)” value (28 DAA, Example 1) was 95%, the “Observed efficacy (%) of L-glufosinate ammonium (Glufosinate-P-ammonium) (150 g a.i./ha)” value (28 DAA, Example 2) was 95% and the “Observed efficacy (%) of L-glufosinate ammonium (Glufosinate-P-ammonium) (150 g a.i./ha)” value (28 DAA, Example 4) was 90%. For the same molecule, the “Observed efficacy (%) of L-glufosinate ammonium (Glufosinate-P-ammonium) (150 g a.i./ha)” value (28 DAA, Example 7) was 90%, the “Observed efficacy (%) of L-glufosinate ammonium (Glufosinate-P-ammonium) (150 g a.i./ha)” value (28 DAA, Example 8) was 90% and the “Observed efficacy (%) of L-glufosinate ammonium (Glufosinate-P-ammonium) (150 g a.i./ha)” value (35 DAA, Example 4) was 85%. The “Observed efficacy (%) of L-glufosinate ammonium (Glufosinate-P-ammonium) (150 g a.i./ha)” value (35 DAA, Example 7) was 85% and the “Observed efficacy (%) of L-glufosinate ammonium (Glufosinate-P-ammonium) (150 g a.i./ha)” value (35 DAA, Example 8) was 85%.
In the case of `CS(=O)(=O)c1ccc(C(=O)C2C(=O)CCCC2=O)c([N+](=O)[O-])c1` [Mesotrione], the “Observed efficacy (%) of Mesotrione (360 g a.i./ha)” value (28 DAA, Example 4) is reported as 75% and the “Observed efficacy (%) of Mesotrione (360 g a.i./ha)” value (35 DAA, Example 4) is reported as 75%.
In the case of `CSc1nnc(C(C)(C)C)c(=O)n1N` [Metribuzin], the “Observed efficacy (%) of Metribuzin (360 g a.i./ha)” value (7 DAA, Example 5) is reported as 90% and the “Observed efficacy (%) of Metribuzin (360 g a.i./ha)” value (14 DAA, Example 5) is reported as 30%.
With `CCOc1cc(Oc2ccc(C(F)(F)F)cc2Cl)ccc1[N+](=O)[O-]` [Oxyfluorfen] the “Observed efficacy (%) of Oxyfluorfen (430 g a.i./ha)” value (7 DAA, Example 3) was 65% and the “Observed efficacy (%) of Oxyfluorfen (430 g a.i./ha)” value (14 DAA, Example 3) was 70%.
